Test results reported in patent US20250345426A1, “METHODS FOR MAKING AND USING THERAPEUTIC CELLS” (THE REGENTS OF THE UNIVERSITY OF CALIFORNIA, priority 2022, published 2025).

Assays:
Raji tumor xenografts = experiment: Raji xenograft in NSG mice treated with inhibitor-preconditioned rituximab CAR-T cells; assay type: in vivo; conditions: for prolonged median survival compared to vehicle (DMSO)-treated rituximab CAR-T cells: two doses of preconditioned rituximab CAR-T cells
Description: FIG. 2A-C. […] (A) Tumor signal (in photons/sec/cm^2/sr) in individual animals as quantified by bioluminescence imaging. […] Statistical significance was determined by Mann-Whitney U test with Holm-Sidak correction for multiple comparisons. * p<0.05, n.s. not statistically significant. (B) Kaplan-Meier survival curve (top) and table of median survival period in days (bottom). (C) Frequency of human CD45+EGFRt+ cell in peripheral blood collected from mice on day 8 after first dose of T-cell infusion. Statistical significance was determined by two-tailed Student's t test with Sidak correction for multiple comparisons. * p<0.05, ** p<0.01.
In vivo studies. Six- to eight-week-old NOD/SCID/IL-2Rγ^null (NSG) mice were obtained from UCLA Department of Radiation and Oncology. The protocol was approved by UCLA Institutional Animal Care and Used Committee. […] Details of the dose and timing of tumor injection, T-cell injection, and tumor re-challenge are indicated in the text and figures. Tumor progression/regression was monitored with an IVIS Illumina III LT Imaging System (PerkinElmer). Blood samples were harvested via retro-orbital bleeding 3 days post T-cell injection and every 10-13 days thereafter. Mice were euthanized at the humane endpoint. Bone marrow, spleen and liver were collected after euthanasia. Tissues were ground and passed through a 100-μm filter followed by red-blood-cell lysis prior to flow-cytometry analysis.

Raji target cells = experiment: 24-hr lysis assay of inhibitor-treated rituximab CD20 CAR-T cells against Raji; assay type: cell-based; conditions: three E:T ratios, vs vehicle-treated
Source text: (§1) FIG. 1A-G. Pharmacological inhibition of PI3K/AKT pathway modulates antigen-independent CAR-T cell activation. (A) Table of pharmacological inhibitors used during ex vivo expansion of rituximab CAR-T cells (left). Simplified schematic of the PI3K/AKT signaling axis where black arrows represent activation (right). (B) Activation marker expression by CAR^+ T cells in the absence of antigen stimulation after 5 days of pharmacological modulation. Data bars indicate the means of technical triplicates±1 S.D. The bars in FIG. 1B represent data from, untreated, vehicle, CAL-101, AZD5363, Rapamycin, MYCi975, and Betulin, respectively, from left to right. (C) TNF-α production CAR^+ T cells in the absence of antigen stimulation as quantified by intracellular flow cytometry. Data bars indicate the means of technical triplicates±1 S.D. The bars in FIG. 1B and FIG. 1C represent data from, untreated, vehicle, CAL-101, AZD5363, Rapamycin, MYCi975, and Betulin, respectively, from left to right. (D) Proliferation of CAR^+ T cells stained with CellTrace Violet (CTV) dye was assayed after a 4-day culture in the absence of target cells or exogenous cytokines. Data shown in the histogram correspond to one of technical triplicates shown in the bar graph. The bars FIG. 1D represent data from, EGFRt, untreated, vehicle, CAL-101, AZD5363, Rapamycin, MYCi975, and Betulin, respectively, from left to right. (E) % distribution of T-cell subtypes in CAR^+ T cells after 5 days of pharmacological modulation. Data bars indicate the means of technical triplicates±1 S.D. (F) Rituximab CAR-T cell fold expansion after 6 days of inhibitor culture was tracked. […] Statistical significance in panels B, C, and D was determined by two-tailed Student's t test with Sidak correction for multiple comparisons. * p<0.05, ** p<0.01, *** p<0.001, n.s. not statistically significant.
Cytotoxicity assay with Raji cells. […] Remaining target cells were quantified by MACSQuant VYB flow cytometer 24-hr post co-incubation.

rituximab CAR-T cells [1] = experiment: TNF-α production without antigen stimulation, intracellular flow cytometry, rituximab CAR-T cells; assay type: cell-based, human; conditions: vs vehicle (DMSO)
Source text: as §1, with “cytokines.” for “cytokines. Data shown in the histogram correspond to one of technical triplicates shown in the bar graph. The bars FIG. 1D represent data from, EGFRt, untreated, vehicle, CAL-101, AZD5363, Rapamycin, MYCi975, and Betulin, respectively, from left to right. (E) % distribution of T-cell subtypes in CAR^+ T cells after 5 days of pharmacological modulation. Data bars indicate the means of technical triplicates±1 S.D. (F) Rituximab CAR-T cell fold expansion after 6 days of inhibitor culture was tracked.”, “significant. […]” for “significant.”

rituximab CAR-T cells [2] = experiment: Antigen-independent activation and exhaustion marker expression by flow cytometry, rituximab CAR-T cells; assay type: cell-based, human; conditions: 5 days inhibitor culture, no antigen, vs vehicle (DMSO), CAL-101 1 μM, AZD5363 1 μM
Source text: FIG. 1A-G. Pharmacological inhibition of PI3K/AKT pathway modulates antigen-independent CAR-T cell activation. (A) Table of pharmacological inhibitors used during ex vivo expansion of rituximab CAR-T cells (left). Simplified schematic of the PI3K/AKT signaling axis where black arrows represent activation (right). (B) Activation marker expression by CAR^+ T cells in the absence of antigen stimulation after 5 days of pharmacological modulation. Data bars indicate the means of technical triplicates±1 S.D. The bars in FIG. 1B represent data from, untreated, vehicle, CAL-101, AZD5363, Rapamycin, MYCi975, and Betulin, respectively, from left to right. (C) TNF-α production CAR^+ T cells in the absence of antigen stimulation as quantified by intracellular flow cytometry. Data bars indicate the means of technical triplicates±1 S.D. The bars in FIG. 1B and FIG. 1C represent data from, untreated, vehicle, CAL-101, AZD5363, Rapamycin, MYCi975, and Betulin, respectively, from left to right. (D) Proliferation of CAR^+ T cells stained with CellTrace Violet (CTV) dye was assayed after a 4-day culture in the absence of target cells or exogenous cytokines. Data shown in the histogram correspond to one of technical triplicates shown in the bar graph. The bars FIG. 1D represent data from, EGFRt, untreated, vehicle, CAL-101, AZD5363, Rapamycin, MYCi975, and Betulin, respectively, from left to right. (E) % distribution of T-cell subtypes in CAR^+ T cells after 5 days of pharmacological modulation. Data bars indicate the means of technical triplicates±1 S.D. (F) Rituximab CAR-T cell fold expansion after 6 days of inhibitor culture was tracked. T-cell fold expansion was normalized to the untreated control with each data point representing biological replicates collected from healthy donors. The bars FIG. 1F represent data from, EGFRt, vehicle, CAL-101, AZD5363, Rapamycin, MYCi975, and Betulin, respectively, from left to right. (G) A 24-hr lysis assay of CD20 CAR-T cells against Raji target cells at three effector-to-target (E:T) ratios. Data bars indicate the means of technical triplicates±1 S.D. Percent lysis was normalized to cell counts in target-only wells. […] In (B)-(F), results are representative two independent experiments using cells from of two heathy donors. Statistical significance in panels B, C, and D was determined by two-tailed Student's t test with Sidak correction for multiple comparisons. * p<0.05, ** p<0.01, *** p<0.001, n.s. not statistically significant. […]
(§2) Antibody staining for flow-cytometry analysis. EGFRt expression was measured with biotinylated cetuximab (Eli Lilly; biotinylated in-house), followed by PE-conjugated streptavidin (Jackson ImmunoResearch #016-110-084). CAR expression was quantified by surface epitope staining using anti-Fc (Alexa Fluor 488, Jackson ImmunoResearch #709-546-098). Antigen-independent activation-marker expression of CAR-T cells was evaluated by antibody staining for CD137 (PE/Cy7, clone 4B4-1, BioLegend #309818), and PD-1 (FITC, clone EH12.2H7, BioLegend #329904) on Days 18 (i.e., 18 days after Dynabead addition and 11 days after Dynabead removal) and after 5-6 days of inhibitor culture (FIG. 1, FIG. 3). T-cell subtype of CAR-T cells was evaluated by antibody staining for CD45RO (VioBlue®, clone REA611, Miltenyi #130-119-620) and CD62L (APC, clone DREG56, Invitrogen #17-0629-42) after 5-6 days of inhibitor culture (FIG. 1, FIG. 3). […]

rituximab CAR-T cells [3] = experiment: T-cell subtype distribution (CD45RO/CD62L staining), rituximab CAR-T cells; assay type: cell-based, human; conditions: 5 days of pharmacological modulation, vs vehicle
Source text: as §1, with “cytokines.” for “cytokines. Data shown in the histogram correspond to one of technical triplicates shown in the bar graph. The bars FIG. 1D represent data from, EGFRt, untreated, vehicle, CAL-101, AZD5363, Rapamycin, MYCi975, and Betulin, respectively, from left to right. (E) % distribution of T-cell subtypes in CAR^+ T cells after 5 days of pharmacological modulation. Data bars indicate the means of technical triplicates±1 S.D. (F) Rituximab CAR-T cell fold expansion after 6 days of inhibitor culture was tracked.”, “significant. […]” for “significant.”
as §2, with “3).” for “3). T-cell subtype of CAR-T cells was evaluated by antibody staining for CD45RO (VioBlue®, clone REA611, Miltenyi #130-119-620) and CD62L (APC, clone DREG56, Invitrogen #17-0629-42) after 5-6 days of inhibitor culture (FIG. 1, FIG. 3).”

rituximab CAR-T cells [4] = experiment: CellTrace Violet proliferation assay without target cells or exogenous cytokines, rituximab CAR-T cells; assay type: cell-based, human; conditions: 4-day culture, CTV dye, vs vehicle (DMSO)
Description: (D) Proliferation of CAR^+ T cells stained with CellTrace Violet (CTV) dye was assayed after a 4-day culture in the absence of target cells or exogenous cytokines. Data shown in the histogram correspond to one of technical triplicates shown in the bar graph. The bars FIG. 1D represent data from, EGFRt, untreated, vehicle, CAL-101, AZD5363, Rapamycin, MYCi975, and Betulin, respectively, from left to right. […] In (B)-(F), results are representative two independent experiments using cells from of two heathy donors. Statistical significance in panels B, C, and D was determined by two-tailed Student's t test with Sidak correction for multiple comparisons. * p<0.05, ** p<0.01, *** p<0.001, n.s. not statistically significant.
For inhibitor analysis, starting on Day 8, T cells were cultured in T-cell media with cytokine support in the presence of 1 μM PI3K8 isoform inhibitor (CAL-101, Apex Biotechnology #A300520)), 1 μM AKT inhibitor (AZD5363, Selleckchem #S8019), 100 nM mTORC1 inhibitor (Rapamycin, LC Laboratories #R-5000), 2 μM c-Myc inhibitor (MYCi975, MedChemExpress #HY-129601), SREBP inhibitor (Betulin, MilliporeSigma #92648), or DMSO as a vehicle control. Each inhibitor molecule was solubilized in DMSO.
Proliferation assay. […] Cultures were passaged as needed, and CTV dilution was analyzed on a MACSQuant VYB flow cytometer after a 4-day co-incubation.

With `CC[C@H](Nc1ncnc2[nH]cnc12)c1nc2cccc(F)c2c(=O)n1-c1ccccc1` [CAL-101] the “prolonged median survival compared to vehicle (DMSO)-treated rituximab CAR-T cells” value (Raji tumor xenografts; NSG mice, Raji i.v.) was 1.5 folds.

With `CO[C@H]1C[C@@H]2CC[C@@H](C)[C@@](O)(O2)C(=O)C(=O)N2CCCC[C@H]2C(=O)O[C@H]([C@H](C)C[C@@H]2CC[C@@H](O)[C@H](OC)C2)CC(=O)[C@H](C)/C=C(\C)[C@@H](O)[C@@H](OC)C(=O)[C@H](C)C[C@H](C)/C=C/C=C/C=C/1C` [rapamycin, Rapamycin] the “prolonged median survival compared to vehicle (DMSO)-treated rituximab CAR-T cells” value (Raji tumor xenografts; NSG mice, Raji i.v.) was 1.8 folds.

AZD5363 was tested, and the “lysis of Raji tumor cells” value (Raji target cells) was “clustered together”, the “TNF-α production in the absence of antigen stimulation” value (rituximab CAR-T cells [1]) was “significantly reduced” and the “antigen-independent expression of activation and exhaustion markers” value (rituximab CAR-T cells [2]) was “significantly reduced”. The “fraction of naïve and stem-cell memory T (Tn/scm) cells / T-cell differentiation” value (rituximab CAR-T cells [3]) was “preserved a greater fraction”, the “tumor outgrowth / tumor progression” value (Raji tumor xenografts; NSG mice, Raji i.v., preconditioned rituximab CAR-T cells, bioluminescence, vs vehicle control) was “delayed tumor outgrowth” and the “prolonged median survival compared to vehicle (DMSO)-treated rituximab CAR-T cells” value (Raji tumor xenografts; NSG mice, Raji i.v.) was 1.6 folds. The “in vivo expansion of CAR-T cells” value (Raji tumor xenografts; human CD45+EGFRt+ cells in peripheral blood, day 8 after first T-cell dose, vs control) was “significantly increased” and the antigen-independent cell division (rituximab CAR-T cells [4]) was “significantly reduced”.
